Source: patent US10981926B2 (Janssen Pharmaceutica NV, priority 2016, dated 2021)

Assays:
Format in all cases: cell-based
[1] = target: T1, F876L mutant Androgen Receptor (AR-F876L) (Homo sapiens (Human), UniProt P10275, F877L); assay: LNCaP-AR-F876L ANT reporter assay (antagonist mode); details: antagonist mode; for Emax: maximum % inhibition of R1881 control response over tested concentration range, read-out: LNCaP-AR-F876L ANT MAX % Inh; for IC50: pIC50 = −Log10(IC50 in Molar), read-out: LNCaP-AR-F876L ANT pIC50 (converted)
[2] = target: T2, wild-type Androgen Receptor (AR-wt) (Homo sapiens (Human), UniProt P10275); assay: LNCaP-AR-wt ANT reporter assay (antagonist mode); details: antagonist mode; for Emax: maximum % inhibition of R1881 control response over tested concentration range, read-out: LNCaP-AR-wt ANT MAX % Inh; for IC50: pIC50 = −Log10(IC50 in Molar), read-out: LNCaP-AR-wt ANT pIC50 (converted)
[3] = target: T1, F876L mutant Androgen Receptor (AR-F876L); assay: LNCaP-AR-F876L AG reporter assay (agonist mode); details: agonist mode; for Emax: maximum % stimulation over tested concentration range, read-out: LNCaP-AR-F876L AG MAX % Stim; for EC50: pEC50 = −Log10(EC50 in Molar), read-out: LNCaP-AR-F876L AG pEC50 (converted)
[4] = target: T2, wild-type Androgen Receptor (AR-wt); assay: LNCaP-AR-wt AG reporter assay (agonist mode); details: agonist mode; for Emax: maximum % stimulation over tested concentration range, read-out: LNCaP-AR-wt AG MAX % Stim; for EC50: pEC50 = −Log10(EC50 in Molar), read-out: LNCaP-AR-wt AG pEC50 (converted)

T2 sequence (P10275 whole entry): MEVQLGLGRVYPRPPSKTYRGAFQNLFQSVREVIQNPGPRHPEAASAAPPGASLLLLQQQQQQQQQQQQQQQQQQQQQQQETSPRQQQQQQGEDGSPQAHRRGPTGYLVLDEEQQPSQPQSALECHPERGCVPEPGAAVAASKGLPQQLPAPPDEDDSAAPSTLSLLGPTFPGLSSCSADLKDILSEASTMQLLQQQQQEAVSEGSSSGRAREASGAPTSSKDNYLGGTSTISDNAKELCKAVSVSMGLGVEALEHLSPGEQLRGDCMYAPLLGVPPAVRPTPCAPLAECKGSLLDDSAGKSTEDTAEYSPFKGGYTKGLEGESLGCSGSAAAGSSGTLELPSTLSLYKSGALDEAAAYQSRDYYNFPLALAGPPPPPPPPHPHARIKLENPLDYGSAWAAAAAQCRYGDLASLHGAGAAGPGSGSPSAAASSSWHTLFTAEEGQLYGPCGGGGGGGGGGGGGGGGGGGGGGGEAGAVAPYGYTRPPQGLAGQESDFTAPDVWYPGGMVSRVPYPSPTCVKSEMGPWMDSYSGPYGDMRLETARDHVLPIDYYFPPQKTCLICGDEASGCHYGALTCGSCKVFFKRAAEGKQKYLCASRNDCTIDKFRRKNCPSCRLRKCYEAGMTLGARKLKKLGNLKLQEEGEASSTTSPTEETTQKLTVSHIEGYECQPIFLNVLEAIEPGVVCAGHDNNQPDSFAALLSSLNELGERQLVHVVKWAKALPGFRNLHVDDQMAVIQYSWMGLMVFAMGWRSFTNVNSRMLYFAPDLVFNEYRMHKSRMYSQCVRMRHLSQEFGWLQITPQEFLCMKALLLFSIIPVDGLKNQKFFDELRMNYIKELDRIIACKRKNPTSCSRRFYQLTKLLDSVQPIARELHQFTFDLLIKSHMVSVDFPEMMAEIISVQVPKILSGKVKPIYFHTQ
T1 sequence (P10275 whole entry F877L): as the sequence (P10275 whole entry) above, with F877L counted along it

SMILES | Emax [1] [%] | IC50 [1] [µM] | Emax [2] [%] | IC50 [2] [µM] | Emax [3] [%] | EC50 [3] [µM] | Emax [4] [%] | EC50 [4] [µM]
CN1CCC(CNC(=O)c2ccc(N3C(=S)N(c4cnc(C#N)c(C(F)(F)F)c4)C(=O)C34CCC4)cc2F)CC1 [Cpd 201, 4-[6-[6-cyano-5-(trifluoromethyl)-3-pyridyl]-5-oxo-7-thioxo-6,8-diazaspiro[3.4]octan-8-yl]-2-fluoro-N-[(1-methyl-4-piperidyl)methyl]benzamide] | 101 | 0.214 | 101 | 0.355 | 0 | > 15.1 | -0.3 | > 15.1
N#Cc1ncc(N2C(=O)C3(CCC3)N(c3ccc(C(=O)NC[C@@H]4CCCNC4)c(F)c3)C2=S)cc1C(F)(F)F [Cpd 202, 4-[6-[6-cyano-5-(trifluoromethyl)-3-pyridyl]-5-oxo-7-thioxo-6,8-diazaspiro[3.4]octan-8-yl]-2-fluoro-N-[[(3R)-3-piperidyl]methyl]benzamide] | 101 | 0.603 | 102 | 1.1 | 0 | > 15.1 | -0.1 | > 15.1
CN1CCC[C@H](CNC(=O)c2ccc(N3C(=S)N(c4cnc(C#N)c(C(F)(F)F)c4)C(=O)C34CCC4)cc2F)C1 [Cpd 203, 4-[6-[6-cyano-5-(trifluoromethyl)-3-pyridyl]-5-oxo-7-thioxo-6,8-diazaspiro[3.4]octan-8-yl]-2-fluoro-N-[[(3R)-1-methyl-3-piperidyl]methyl]benzamide] | 100 | 0.562 | 102 | 0.891 | 0 | > 15.1 | -0.1 | > 15.1
N#Cc1ncc(N2C(=O)C3(CCC3)N(c3ccc(C(=O)NC[C@H]4CCCNC4)c(F)c3)C2=S)cc1C(F)(F)F [Cpd 204, 4-[6-[6-cyano-5-(trifluoromethyl)-3-pyridyl]-5-oxo-7-thioxo-6,8-diazaspiro[3.4]octan-8-yl]-2-fluoro-N-[[(3S)-3-piperidyl]methyl]benzamide] | 99.7 | 1.95 | 102 | 2.45 | 0 | > 15.1 | 0.1 | > 15.1
CN1CC[C@@H](CNC(=O)c2ccc(N3C(=S)N(c4cnc(C#N)c(C(F)(F)F)c4)C(=O)C34CCC4)cc2F)C1 [Cpd 205, 4-[6-[6-cyano-5-(trifluoromethyl)-3-pyridyl]-5-oxo-7-thioxo-6,8-diazaspiro[3.4]octan-8-yl]-2-fluoro-N-[[(3S)-1-methylpyrrolidin-3-yl]methyl]benzamide] | 100 | 0.708 | 101 | 1.1 | 0.1 | > 15.1 | -0.1 | > 15.1
CN1CC[C@H](CNC(=O)c2ccc(N3C(=S)N(c4cnc(C#N)c(C(F)(F)F)c4)C(=O)C34CCC4)cc2)C1 [Cpd 206, 4-[6-[6-cyano-5-(trifluoromethyl)-3-pyridyl]-5-oxo-7-thioxo-6,8-diazaspiro[3.4]octan-8-yl]-N-[[(3R)-1-methylpyrrolidin-3-yl]methyl]benzamide] | 99.3 | 0.617 | 101 | 0.851 | 0.1 | > 15.1 | 0.1 | > 15.1
CN(C)C1(COc2ccc(N3C(=S)N(c4cnc(C#N)c(C(F)(F)F)c4)C(=O)C34CCC4)cc2)COC1 [Cpd 208, 5-[8-[4-[[3-(dimethylamino)oxetan-3-yl]methoxy]phenyl]-5-oxo-7-thioxo-6,8-diazaspiro[3.4]octan-6-yl]-3-(trifluoromethyl)pyridine-2-carbonitrile] | 101 | 1.02 | 103 | 0.871 | 0 | > 15.1 | 0 | > 15.1
CN1CCC(CN(C)C(=O)c2ccc(N3C(=S)N(c4cnc(C#N)c(C(F)(F)F)c4)C(=O)C34CCC4)cc2)CC1 [Cpd 209, 4-[6-[6-cyano-5-(trifluoromethyl)-3-pyridyl]-5-oxo-7-thioxo-6,8-diazaspiro[3.4]octan-8-yl]-N-methyl-N-[(1-methyl-4-piperidyl)methyl]benzamide] | 100 | 0.417 | 99 | 0.457 | 0 | > 15.1 | -0.1 | > 15.1
CN1CCC(C)(Oc2ccc(N3C(=S)N(c4cnc(C#N)c(C(F)(F)F)c4)C(=O)C34CCC4)cn2)CC1 [Cpd 210, 5-[8-[6-[(1,4-dimethyl-4-piperidyl)oxy]-3-pyridyl]-5-oxo-7-thioxo-6,8-diazaspiro[3.4]octan-6-yl]-3-(trifluoromethyl)pyridine-2-carbonitrile] | 100 | 1.1 | 102 | 1.17 | 0.1 | > 15.1 | 0.1 | > 15.1
COc1cc(N2C(=O)C3(CCC3)N(c3ccc4c(cnn4C4CCNCC4)c3)C2=S)cnc1C#N [Cpd 211, 3-methoxy-5-[5-oxo-8-[1-(4-piperidyl)indazol-5-yl]-7-thioxo-6,8-diazaspiro[3.4]octan-6-yl]pyridine-2-carbonitrile] | 101 | 0.363 | 101 | 1.05 | 0.1 | > 15.1 | 0.5 | > 15.1
COc1cc(N2C(=O)C3(CCC3)N(c3ccc4c(cnn4C4CCN(C(C)=O)CC4)c3)C2=S)cnc1C#N [Cpd 212, 5-[8-[1-(1-acetyl-4-piperidyl)indazol-5-yl]-5-oxo-7-thioxo-6,8-diazaspiro[3.4]octan-6-yl]-3-methoxy-pyridine-2-carbonitrile] | 96.1 | 0.331 | 102 | 0.135 | 1.5 | > 15.1 | 0.2 | > 15.1
COc1cc(N2C(=O)C3(CCC3)N(c3ccc4c(cnn4C4CCN(C)CC4)c3)C2=S)cnc1C#N [Cpd 213, 3-methoxy-5-[8-[1-(1-methyl-4-piperidyl)indazol-5-yl]-5-oxo-7-thioxo-6,8-diazaspiro[3.4]octan-6-yl]pyridine-2-carbonitrile] | 100 | 0.282 | 102 | 0.55 | 0.1 | > 15.1 | 0.2 | > 15.1
COc1cc(N2C(=O)C3(CCC3)N(c3ccc4nn(C5CCNCC5)cc4c3)C2=S)cnc1C#N [Cpd 214, 3-methoxy-5-[5-oxo-8-[2-(4-piperidyl)indazol-5-yl]-7-thioxo-6,8-diazaspiro[3.4]octan-6-yl]pyridine-2-carbonitrile] | 99.9 | 0.219 | 100 | 0.288 | 0 | > 15.1 | 0.3 | > 15.1
COc1cc(N2C(=O)C3(CCC3)N(c3ccc4nn(C5CCN(C)CC5)cc4c3)C2=S)cnc1C#N [Cpd 215, 3-methoxy-5-[8-[2-(1-methyl-4-piperidyl)indazol-5-yl]-5-oxo-7-thioxo-6,8-diazaspiro[3.4]octan-6-yl]pyridine-2-carbonitrile] | 101 | 0.24 | 101 | 0.347 | 0.1 | > 15.1 | 0 | > 15.1
